# Data as given in patent publication US20060257400A1, “COMBINATION THERAPY” (Bristol-Myers Squibb Company, priority 2005, published 2006).
# Test system: Human L2987 lung carcinomas
# Assay: Antitumor testing, s.c. L2987 xenografts in nude mice
# Assay type: in vivo
# Settings: athymic nude mice, s.c. L2987 tumors established at 100-200 mm^3; Compound I 100 mg/Kg daily; Erbitux 1 mg per mouse every three days, 5 doses; combination given essentially simultaneously
# Protocol: Animals. […] They were fed food and water ad libitum. All studies involving these animals were conducted in accordance with NIH (Bethesda, Md.) and Bristol Myers-Squibb animal care and use guidelines.
# Tumors. […] All efficacy testing involved tumors implanted s.c. in nude mice.
smiles,measurement,value
Cc1cc2c(F)c(Oc3ncnn4cc(OC[C@@H](C)OC(=O)[C@H](C)N)c(C)c34)ccc2[nH]1 [Compound I],delay of tumor growth to target tumor size of 500 mm^3 compared to vehicle treated control group,ten
